# Test results: US20250195521A1 (Revolution Medicines, Inc., priority 2020, published 2025)
# System: K-Ras G12C (NCI-H358 cells)
# Experiment: Potency assay: pERK in NCI-H358 cells
# Format: cell-based, human
# Details: Homo sapiens, NCI-H358, 4 h, read-out: pERK EC50 (H358 KRAS G12C)
# Experimental: The purpose of this assay is to measure the ability of test compounds to inhibit K-Ras in cells. […] This procedure measures a decrease in cellular pERK in response to test compounds. The procedure described below in NCI-H358 cells is applicable to K-Ras G12C.
# Note: This protocol may be executed substituting other cell lines to characterize inhibitors of other RAS variants, including, for example, AsPC-1 (K-Ras G12D), Capan-1 (K-Ras G12V), or NCI-H1355 (K-Ras G13C).
# NCI-H358 cells were grown and maintained using media and procedures recommended by the ATCC. On the day prior to compound addition, cells were plated in 384-well cell culture plates (40 μl/well) and grown overnight in a 37° C., 5% CO2 incubator. Test compounds were prepared in 10, 3-fold dilutions in DMSO, with a high concentration of 10 mM. On the day of assay, 40 nL of test compound was added to each well of cell culture plate using an Echo550 liquid handler (LabCyte®). Concentrations of test compound were tested in duplicate. After compound addition, cells were incubated 4 hours at 37° C., 5% CO2. Following incubation, culture medium was removed and cells were washed once with phosphate buffered saline.
# In some experiments, cellular pERK level was determined using the AlphaLISA SureFire Ultra p-ERK1/2 Assay Kit (PerkinElmer). Cells were lysed in 25 μL lysis buffer, with shaking at 600 RPM at room temperature. […] After a 2-hour incubation in the dark, 5 μL donor mix was added, plate was sealed, and incubated 2 hours at room temperature. Signal was read on an Envision plate reader (PerkinElmer) using standard AlphaLISA settings. Analysis of raw data was carried out in Excel (Microsoft) and Prism (GraphPad). Signal was plotted vs. the decadal logarithm of compound concentration, and IC50 was determined by fitting a 4-parameter sigmoidal concentration response model.
# In other experiments, cellular pERK was determined by In-Cell Western. […] Fixed cells were washed 4 times for 5 minutes with TBS containing 0.1% Triton X-100 (TBST) and then blocked with 100 μL Odyssey blocking buffer (LI-COR) for 60 minutes at room temperature. Primary antibody (PERK, CST-4370, Cell Signaling Technology) was diluted 1:200 in blocking buffer, and 50 μL was added to each well and incubated overnight at 4° C. Cells were washed 4 times for 5 minutes with TBST. Secondary antibody (IR-800CW rabbit, LI-COR, diluted 1:800) and DNA stain DRAQ5 (LI-COR, diluted 1:2000) were added and incubated 1-2 hours at room temperature. Cells were washed 4 times for 5 minutes with TBST. Plates were scanned on a Li—COR Odyssey CLx Imager. Analysis of raw data was carried out in Excel (Microsoft) and Prism (GraphPad). Signal was plotted vs. the decadal logarithm of compound concentration, and IC50 was determined by fitting a 4-parameter sigmoidal concentration response model.
row,Compound,EC50
1,C=CC(=O)N1CC[C@H](C(=O)N(C)[C@H](C(=O)N[C@H]2Cc3cc(cc(O)c3F)-c3ccc4c(c3)c(c(-c3c(CCOC)cccc3OC)n4CC)CC(C)(C)COC(=O)[C@@H]3CCCN(N3)C2=O)C(C)C)C1 [Compound A9],< 5 µM
2,"CCn1c(-c2cnccc2COC)c2c3cc(ccc31)-c1cc(O)cc(c1)C[C@H](NC(=O)[C@H](C(C)C)N(C)C(=O)[C@H]1CCN(C(=O)OC)C1)C(=O)N1CCC[C@H](N1)C(=O)OCC(C)(C)C2 [Compound A11, methyl (3S)-3-{[(1S)-1-{[(8S,14S)-22-ethyl-4-hydroxy-21-[4-(methoxymethyl)pyridin-3-yl]-18,18-dimethyl-9,15-dioxo-16-oxa-10,22,28-triazapentacyclo [18.5.2.1^2,6.1^10,14.0^23,27]nonacosa-1 (26),2,4,6 (29),20,23 (27),24-heptaen-8-yl]carbamoyl}-2-methylpropyl](methyl)carbamoyl}pyrrolidine-1-carboxylate]",< 5 µM
3,C=CC(=O)N1CC[C@H](C(=O)N(C)[C@H](C(=O)N[C@H]2Cc3cc(O)cc(c3)-c3ccc4c(c3)c(c(-c3ncccc3[C@@H](C)OC)n4CC)CC(C)(C)COC(=O)[C@@H]3CCCN(N3)C2=O)C(C)C)C1 [Compound A29],< 5 µM
4,C=CC(=O)N1CC[C@H](C(=O)N(C)[C@H](C(=O)N[C@H]2Cc3cc(OC(=O)N(C)CC(=O)O)cc(c3)-c3ccc4c(c3)c(c(-c3ccccc3CCOC)n4CC)CC(C)(C)COC(=O)[C@@H]3CCCN(N3)C2=O)C(C)C)C1 [Compound A78],< 5 µM

# Same assay, conditions: Homo sapiens; NCI-H358 cells, 4 hours; read-out: pERK EC50 (H358 KRAS G12C)
row,Compound,EC50
1,"CCn1c(-c2cccnc2[C@H](C)OC)c2c3cc(ccc31)-c1cc(O)cc(c1)C[C@H](NC(=O)[C@H](C(C)C)N(C)C(=O)[C@H]1CCC[C@H]1N)C(=O)N1CCC[C@H](N1)C(=O)OCC(C)(C)C2 (atropisomer, axis not shown) [Compound A131]",< 5 µM
2,"CCn1c(-c2cccnc2[C@H](C)OC)c2c3cc(ccc31)-c1csc(n1)C[C@H](NC(=O)[C@H](C(C)C)N(C)C(=O)N1CC(C(C)(C)OC)C1)C(=O)N1CCC[C@H](N1)C(=O)OCC(C)(C)C2 (atropisomer, axis not shown) [Compound A614]",< 5 µM
3,C=CC(=O)N1CC[C@H](C(=O)N(C)[C@H](C(=O)N[C@H]2Cc3cc(O)cc(c3)-c3ccc4c(c3)c(c(-c3ccccc3CCOC)n4C(C)(C)C#N)CC(C)(C)COC(=O)[C@@H]3CCCN(N3)C2=O)C(C)C)C1 [Compound A12],< 5 µM
4,CCn1c(-c2cnccc2COC)c2c3cc(ccc31)-c1cc(O)cc(c1)C[C@H](NC(=O)[C@H](C(C)C)N(C)C(=O)[C@H]1CCN(S(=O)(=O)N3CC(N)C3)C1)C(=O)N1CCC[C@H](N1)C(=O)OCC(C)(C)C2 [Compound A35],< 5 µM
5,"CCn1c(-c2cnccc2COC)c2c3cc(ccc31)-c1cc(O)cc(c1)C[C@H](NC(=O)[C@H](C(C)C)N(C)C(=O)[C@H]1CCN(S(=O)(=O)N3CC(O)C3)C1)C(=O)N1CCC[C@H](N1)C(=O)OCC(C)(C)C2 [Compound A37, (2S)—N-[(8S,14S)-22-ethyl-4-hydroxy-21-[4-(methoxymethyl)pyridin-3-yl]-18,18-dimethyl-9,15-dioxo-16-oxa-10,22,28-triazapentacyclo [18.5.2.1^2,6.1^10,14.0^23,27]nonacosa-1 (26),2,4,6 (29),20,23 (27),24-heptaen-8-yl]-2-{1-[(3S)-1-[(3-hydroxyazetidin-1-yl)sulfonyl]pyrrolidin-3-yl]-N-methylformamido}-3-methylbutanamide]",< 5 µM
6,CCn1c(-c2cnccc2COC)c2c3cc(ccc31)-c1cc(O)cc(c1)C[C@H](NC(=O)[C@H](C(C)C)N1CCCCC1=O)C(=O)N1CCC[C@H](N1)C(=O)OCC(C)(C)C2 [Compound A44],< 5 µM
7,CCn1c(-c2cccnc2[C@H](C)OC)c2c3cc(ccc31)-c1cccc(c1)C[C@H](NC(=O)[C@H](C(C)C)N(C)C(=O)[C@H]1CCN(C(C)=O)C1)C(=O)N1CCC[C@H](N1)C(=O)OCC(C)(C)C2 [Compound A60],< 5 µM
8,CCn1c(-c2cccnc2[C@H](C)OC)c2c3cc(ccc31)-c1cccc(c1)C[C@H](NC(=O)[C@H](C(C)C)N(C)C(=O)[C@H]1CCN(C(=O)CN)C1)C(=O)N1CCC[C@H](N1)C(=O)OCC(C)(C)C2 [Compound A105],< 5 µM
9,CCn1c(-c2cccnc2[C@H](C)OC)c2c3cc(ccc31)-c1csc(n1)C[C@H](NC(=O)[C@H](C(C)C)N(C)C(=O)[C@H]1CCN(C)C1)C(=O)N1CCC[C@H](N1)C(=O)OCC(C)(C)C2 [Compound A108],< 5 µM
10,CCn1c(-c2cccnc2[C@H](C)OC)c2c3cc(ccc31)-c1cc(O)cc(c1)C[C@H](NC(=O)[C@H](C(C)C)N(C)C(=O)[C@H]1CCN(CCO)C1)C(=O)N1CCC[C@H](N1)C(=O)OCC(C)(C)C2 [Compound A111],< 5 µM

# Other lines, results leading:
row,EC50,Compound
1,< 5 µM,CCn1c(-c2cnccc2COC)c2c3cc(ccc31)-c1cc(O)cc(c1)C[C@H](NC(=O)[C@H](C(C)C)N(C)C(=O)[C@H]1CCNC1)C(=O)N1CCC[C@H](N1)C(=O)OCC(C)(C)C2 [Compound A10]
2,< 5 µM,"CCn1c(-c2cnccc2COC)c2c3cc(ccc31)-c1cc(O)cc(c1)C[C@H](NC(=O)[C@H](C(C)C)N(C)C(=O)[C@H]1CCN(C)C1)C(=O)N1CCC[C@H](N1)C(=O)OCC(C)(C)C2 [Compound A27, (2S)—N-[(8S,14S)-22-ethyl-4-hydroxy-21-[4-(methoxymethyl)pyridin-3-yl]-18,18-dimethyl-9,15-dioxo-16-oxa-10,22,28-triazapentacyclo [18.5.2.1^2,6.1^10,14.0^23,27]nonacosa-1 (26),2,4,6 (29),20,23 (27),24-heptaen-8-yl]-3-methyl-2-{N-methyl-1-[(3S)-1-methylpyrrolidin-3-yl]formamido}butanamide]"
3,< 5 µM,CCn1c(-c2cccnc2COC)c2c3cc(ccc31)-c1cc(O)cc(c1)C[C@H](NC(=O)[C@H](C(C)C)N(C)C(=O)[C@H]1CCNC1)C(=O)N1CCC[C@H](N1)C(=O)OCC(C)(C)C2 [Compound A32]
4,< 5 µM,"CCn1c(-c2cnccc2COC)c2c3cc(ccc31)-c1cc(O)cc(c1)C[C@H](NC(=O)[C@H](C(C)C)N(C)C(=O)CO)C(=O)N1CCC[C@H](N1)C(=O)OCC(C)(C)C2 [Compound A43, (2S)—N-[(8S,14S)-22-ethyl-4-hydroxy-21-[4-(methoxymethyl)pyridin-3-yl]-18,18-dimethyl-9,15-dioxo-16-oxa-10,22,28-triazapentacyclo [18.5.2.1^2,6.1^10,14.0^23,27]nonacosa-1 (26), 2,4,6 (29),20,23 (27),24-heptaen-8-yl]-2-(2-hydroxy-N-methylacetamido)-3-methylbutanamide]"
5,< 5 µM,"CCn1c(-c2cnccc2COC)c2c3cc(ccc31)-c1cc(O)cc(c1)C[C@H](NC(=O)[C@H](C(C)C)N(C)S(C)(=O)=O)C(=O)N1CCC[C@H](N1)C(=O)OCC(C)(C)C2 [Compound A57, (2S)—N-[(8S,14S)-22-ethyl-4-hydroxy-21-[4-(methoxymethyl)pyridin-3-yl]-18,18-dimethyl-9,15-dioxo-16-oxa-10,22,28-triazapentacyclo [18.5.2.1^2,6.1^10,14.0^23,27]nonacosa-1 (26),2,4,6 (29),20,23 (27),24-heptaen-8-yl]-3-methyl-2-(N-methylmethanesulfonamido) butanamide]"
6,< 5 µM,CCn1c(-c2cnccc2COC)c2c3cc(ccc31)-c1cc(O)cc(c1)C[C@H](NC(=O)[C@H]([C@@H](C)OC)N(C)C(C)=O)C(=O)N1CCC[C@H](N1)C(=O)OCC(C)(C)C2 [Compound A76]
7,< 5 µM,CCn1c(-c2cnccc2COC)c2c3cc(ccc31)-c1cc(O)cc(c1)C[C@H](NC(=O)[C@H](C(C)C)N(C)C(=O)[C@@H]1CCOC1)C(=O)N1CCC[C@H](N1)C(=O)OCC(C)(C)C2 [Compound A94]
8,< 5 µM,CCn1c(-c2cnccc2COC)c2c3cc(ccc31)-c1cc(O)cc(c1)C[C@H](NC(=O)[C@H](C(C)C)N(C)C(=O)OC1CN(C)C1)C(=O)N1CCC[C@H](N1)C(=O)OCC(C)(C)C2 [Compound A101]

# Same assay, conditions: read-out: pERK EC50 (H358 KRAS G12C); NCI-H358 cells, 4 hours
row,Compound,EC50
1,C=CC(=O)N1CC[C@H](C(=O)N(C)[C@H](C(=O)N[C@H]2Cc3cc(N)cc(c3)-c3ccc4c(c3)c(c(-c3ccccc3COC)n4CC)CC(C)(C)COC(=O)[C@@H]3CCCN(N3)C2=O)C(C)C)C1 [Compound A42],< 5 µM
